Assay results as given in US20240252529A1, “ANTIVIRAL PHARMACEUTICAL COMPOSITION” (MARINOMED BIOTECH AG, priority 2020, published 2024).

Tested on: SARS-CoV-2 spike glycoprotein pseudotyped lentivirus
Assay type: cell-based
Settings: comparative polymers at 100 μg/ml; FIG. 3

O=C[C@H](O)[C@@H](O)[C@@H](OS(=O)(=O)O)[C@H](O)CO [Gal-4-SO4, galactose-4-sulphate]
protection of target cells against infection: only poorly effective
